Measurements reported in paper PMC8626775, “Anti-schistosomal activities of quinoxaline-containing compounds: From hit identification to lead optimisation” (European Journal of Medicinal Chemistry, 2021).
Where “and” joins values, the source holds several entries; their conditions need not be identical. Identical values can stand only once. Like-named read-outs stand apart in the source and are kept apart here.

What was measured:
S. mansoni schistosomula = S. mansoni schistosomula high-throughput phenotype and motility screen (Roboworm), 72 h; format: cell-based, Schistosoma mansoni
Procedure: Cercariae derived from the NMRI ([…]) Puerto Rican strain (PR-1) of S. mansoni were shed from two Biomphalaria glabrata strains, the NMRI albino and pigmented outbred strains, under intensified lighting conditions (1 h of incubation at 26 °C). Cercariae were then mechanically transformed into schistosomula as previously described.
High-throughput screening (HTS) of selected compounds was conducted as previously described. Briefly, newly transformed schistosomula were distributed in a 384-well tissue culture plate (PerkinElmer, cat 6007460, seeding density of 120 parasites/well). Each compound (at a single concentration or two-fold titrations) was transferred into individual wells alongside the positive and negative controls (AUR at 10 μM final concentration in 0.625% DMSO and 0.625% DMSO, respectively). Schistosomula/compound co-cultures were then incubated at 37 °C for 72 h in a humidified atmosphere containing 5% CO2. Following the co-culture period, automatic assessment of compound-induced schistosomula motility and phenotypic changes were conducted with the high-content imaging platform Roboworm using the image analysis model previously described by Paveley et al..

[1] = test system: Juvenile S. mansoni worms; test: S. mansoni juvenile worm screen (motility score, propidium iodide uptake), 72 h; format: cell-based, Schistosoma mansoni; details: juvenile worms, positive controls at 15 μM, Fig. S4
Excerpt: (§1) Mice (Mus musculus HsdOLa:TO - Tuck Ordinary; Envigo, UK) were used for the mammalian-specific propagation of the S. mansoni life cycle. Experimental animals were infected with 4000 or 180 S. mansoni cercariae/mouse and perfused three- or seven-weeks post-infection to obtain S. mansoni juvenile or adult worms, respectively. Preparation steps following perfusion have been described previously. Briefly, the parasite material was washed three times with pre-warmed adult worm media (DMEM (Gibco, Paisley, UK) supplemented with 10% (v/v) Fetal Calf Serum (FCS, Gibco, Paisley, UK), 1% (v/v) L-glutamine (Gibco, Paisley, UK) and an antibiotic mixture (150 Units/ml penicillin and 150 μg/ml streptomycin; Gibco, UK)) to remove residual host contamination and incubated in a humidified environment containing 5% CO2 at 37 °C for at least 1 h.
Juvenile worms were distributed in a 96-well tissue culture plate (n = 20–25 individuals/well) containing 200 μl/well. Compounds were added to each treatment well at a concentration range of 10–0.156 μM. Negative (1.25% DMSO) and positive (15 μM PZQ and 15 μM AUR in 1.25% DMSO) controls were also included in each drug screen. Treated juvenile worms were incubated for 72 h in a humidified environment containing 5% CO2 at 37 °C. Compound-induced phenotype and motility effects were quantified using an adapted version of the WHO-TDR scoring system (in summary: 0 = dead, 1 = movement of the suckers only and slight contraction of the body, 2 = movement at the anterior and posterior regions only, 3 = full body movement but sluggish and 4 = normal movement). Additionally, differential uptake of propidium iodide (PI, P1304MP, Sigma-Aldrich, UK) was used to quantify worm viability as previously described. In brief, after 15 min incubation with 2 μg/ml PI, the parasite cultures were imaged under both bright-field and fluorescent settings (PI detection, 562 and 624 excitation and emission wavelengths, respectively) using an ImageXpressXL high content imager (Molecular Devices, UK). Enumeration of PI positive and negative juvenile worms was manually performed across all parasites within the well and the percentage of PI positive parasite was calculated per well.

HepG2 cells = test: HepG2 MTT cytotoxicity assay; details: for CC50: Table 2, MTT; for Selectivity Index (SI) Adult worms: HepG2 CC50 versus adult worm EC50; for Selectivity Index (SI) Somula: HepG2 CC50 versus schistosomula EC50
Procedure: Initially the cells were handled under sterile conditions and grown at 37 °C in a humidified atmosphere containing 5% CO2. Cytotoxicity was evaluated by way of a 3-(4, 5- dimethylthiazol-2-yl)-2,5-diphenyl tetrazolium bromide (MTT) assay as previously described. The cells were counted in a dual chamber counting slide using the BIORAD TC-10 Automated cell counter, seeded in a 96-well plate (Fisher Scientific, Loughborough, UK) at a density of 2 × 10^4 cells/well and incubated in an atmosphere of 5% CO2 at 37 °C. […] The absorbance readings (at 570 nm) of the soluble formazan crystals were recorded using PolarStar Omega plate reader (BMG-Labtech). […] The latter was used to calculate the selectivity index (SI) of the compounds presented herein.

S. mansoni adult worms = test: S. mansoni adult worm motility screen (WormassayGP2), 72 h; format: cell-based, Schistosoma mansoni; details: Schistosoma mansoni
Excerpt: as §1
For the evaluation of anti-schistosomal activity on the adult stage of the parasite, 7-wk old worms were transferred into 48 well tissue culture plates (1–3 worm pairs/well, in duplicate). […] DMSO (0.5%) and praziquantel (10 μM in 0.5% DMSO) were also included as negative and positive control treatments. Treated adult worms were incubated for 72 h in a humidified environment containing 5% CO2 at 37 °C. Parasite motility after compound treatment was assessed by a digital image processing-based system (WormassayGP2), modified after Wormassay. Following compound-parasite co-incubation, eggs were collected, fixed in formalin (10% v/v formaldehyde) and enumerated aiming to collect further information on any compound-induced effects on parasite fecundity and IVLE production.

[2] = test system: adult S. japonicum male worms; test: In vitro screening of S. japonicum adults at 100 nM (WormAssay motility, descriptors, severity score); format: cell-based, Schistosoma japonicum; details: for Effect on S. japonicum adult male worms: 5, 24, 48 and 72 h; for SEVERITY SCORES 5 h / SEVERITY SCORES 24 h / SEVERITY SCORES 48 h / DESCRIPTORS 48 h / SEVERITY SCORES 72 h / DESCRIPTORS 72 h: S. japonicum; for SEVERITY SCORES 5 h / SEVERITY SCORES 24 h / SEVERITY SCORES 48 h / SEVERITY SCORES 72 h: max = 4, one line per replicate; for DESCRIPTORS 48 h / DESCRIPTORS 72 h: one line per replicate
Procedure: (§2) For each species, parasite recovery involved reverse perfusion of the hepatic portal and mesenteric system using DMEM (Fisher Scientific). Parasites were washed six times with Basch 169 medium supplemented with 100 U/ml penicillin and 100 μg/ml streptomycin before manually distributing approximately 5 males per well (on occasion 1 or 2 females might also be present) of a 24-well plate (Corning Costar 3524). […] The next morning, a final concentration of 100 nM compound (in 1 μL DMSO) was added to each well and the final volume made up to 2 ml with Basch 169 medium supplemented with antibiotics and FBS. Each compound was tested in triplicate (except for some instances tested in duplicate). […] The phenotypic characterisation of compound effects focused on male worms due to the greater range of their motility characteristics that include flexing, bending, stretching, sucker walking and adherence, compared to the more sedentary female worms. In addition to descriptors, WormAssay, as adapted for the schistosome, was used to measure average worm motility per well [72, 73].

[3] = test system: Adult S. haematobium worms; test: In vitro screening of S. haematobium adults at 100 nM (WormAssay motility, descriptors, severity score); format: cell-based, Schistosoma haematobium
Procedure: as §2

[4] = Schistosoma mansoni, 72 h, Table 2, average of phenotype and motility EC50, 72 h, read-out: Activity on schistosomula (EC50, μM - 72 h) Average
[5] = Schistosoma mansoni, 72 h, Table 2, motility, 72 h, three replicate titrations (0.313–10 μM), read-out: Activity on schistosomula (EC50, μM - 72 h) M
[6] = Schistosoma mansoni, 72 h, Table 2, phenotype, 72 h, three replicate titrations (0.313–10 μM), read-out: Activity on schistosomula (EC50, μM - 72 h) P
[7] = Schistosoma mansoni, Table 4, Series A, read-out: Anti-schistosomal activity EC50 Schistosomula (μM) Motility
[8] = Schistosoma mansoni, Table 4, Series A, read-out: Anti-schistosomal activity EC50 Schistosomula (μM) Phenotype
[9] = Table 4, Series A, read-out: Anti-schistosomal activity EC50 Adult (nM) Motility
[10] = Table 2, 72 h, titrations 0.0095–5 μM, WormassayGP2, read-out: Activity on adult worms (EC50, μM - 72 h) Motility

EC50 (S. mansoni schistosomula; [4]) | EC50 (S. mansoni schistosomula; [5]) | EC50 (S. mansoni schistosomula; [6]) | EC50 (S. mansoni schistosomula; [7]) | EC50 (S. mansoni schistosomula; [8]) | EC50 (S. mansoni adult worms; [9]) | EC50 (S. mansoni adult worms; [10]) | SMILES | PI pos [1] | Selectivity Index (SI) Adult worms (HepG2 cells) | Selectivity Index (SI) Somula (HepG2 cells) | Effect on S. japonicum adult male worms [2] | SEVERITY SCORES 5 h [2] | SEVERITY SCORES 24 h [2] | SEVERITY SCORES 48 h [2] | DESCRIPTORS 48 h [2] | SEVERITY SCORES 72 h [2] | DESCRIPTORS 72 h [2] | other results
0.38 µM | 0.43 µM | 0.34 µM | 0.43 µM | 0.34 µM | 2.59 nM | 2.59 nM | O=[N+]([O-])c1ccc2nc(Nc3cccc(C(F)(F)F)c3)c(Nc3cccc(C(F)(F)F)c3)nc2c1 [Compound 30, 6-nitro-N2, N3-bis(3-(trifluoromethyl)phenyl)quinoxaline-2,3-diamine] | – | 348 and 347.59 | 2.36 | decreased motility starting at 48 h | 0 | 0 | 2 and 1 | S, on sides and S | 2 and 1 | S, on sides and S+ | Effect on S. haematobium adult worms ([3]; 5, 24, 48 and 72 h): relatively mild effects; SEVERITY SCORES 5 h ([3]; S. haematobium, 5 h, max = 4, one line per replicate): 0; SEVERITY SCORES 24 h ([3]; S. haematobium, 24 h, max = 4, one line per replicate): 0; SEVERITY SCORES 48 h ([3]; S. haematobium, 48 h, max = 4, one line per replicate): 1 and 2; DESCRIPTORS 48 h ([3]; S. haematobium, 48 h, one line per replicate): S-unc, on sides; SEVERITY SCORES 72 h ([3]; S. haematobium, 72 h, max = 4, one line per replicate): 2; DESCRIPTORS 72 h ([3]; S. haematobium, 72 h, one line per replicate): S-unc, on sides
0.72 µM | 0.54 µM | 0.89 µM | 0.54 µM | 0.89 µM | 11 nM | 11 nM | O=[N+]([O-])c1ccc2nc(Nc3ccc(F)c(C(F)(F)F)c3)c(Nc3ccc(F)c(C(F)(F)F)c3)nc2c1 [Compound 32, N2, N3-bis(4-fluoro-3-(trifluoromethyl)phenyl)-6-nitroquinoxaline-2,3-diamine] | – | 60.99 | 0.94 | – | – | – | – | – | – | – | –
1.01 µM | 0.88 µM | 1.14 µM | – | – | – | 107 nM | O=C(C1CCCCC1)N1CC(=O)N2CCc3ccccc3C2C1 (stereo not drawn) [PZQ, praziquantel, reference compound] | 100% | 945.31 | 100.05 | – | – | – | – | – | – | – | EC50 (S. mansoni schistosomula; Schistosoma mansoni, 72 h, Table 1, 72 h, two dose response titrations (0.313–10 μM), 95% CI in brackets, read-out: Activity on schistosomula (EC50, μM - 72 h) Motility): 0.88 µM; EC50 (S. mansoni schistosomula; Schistosoma mansoni, 72 h, Table 1, 72 h, two dose response titrations (0.313–10 μM), 95% CI in brackets, read-out: Activity on schistosomula (EC50, μM - 72 h) Phenotype): 1.14 µM; EC50 (S. mansoni schistosomula; Schistosoma mansoni, 72 h, Table 1, mean of phenotype and motility EC50, 72 h, read-out: Activity on schistosomula (EC50, μM - 72 h) Average): 1.01 µM

Second part, the compound before the results:

SMILES | EC50 (S. mansoni schistosomula; [4]) | EC50 (S. mansoni schistosomula; [5]) | EC50 (S. mansoni schistosomula; [6]) | EC50 (S. mansoni schistosomula; [7]) | EC50 (S. mansoni schistosomula; [8]) | EC50 (S. mansoni adult worms; [9]) | EC50 (S. mansoni adult worms; [10]) | PI pos [1] | Selectivity Index (SI) Adult worms (HepG2 cells) | Selectivity Index (SI) Somula (HepG2 cells) | Effect on S. japonicum adult male worms [2] | SEVERITY SCORES 5 h [2] | SEVERITY SCORES 24 h [2] | SEVERITY SCORES 48 h [2] | DESCRIPTORS 48 h [2] | SEVERITY SCORES 72 h [2] | DESCRIPTORS 72 h [2] | other results
CC(=O)OC[C@H]1O[C@@H]([S-])[C@H](OC(C)=O)[C@@H](OC(C)=O)[C@@H]1OC(C)=O.CCP(CC)CC.[Au+] [AUR, Auranofin, reference compound] | – | – | – | – | – | – | – | 0% | – | – | – | – | – | – | – | – | – | EC50 (S. mansoni schistosomula; Table 1, 72 h, two dose response titrations (0.313–10 μM), 95% CI in brackets, read-out: Activity on schistosomula (EC50, μM - 72 h) Motility): 0.45 µM; EC50 (S. mansoni schistosomula; Table 1, mean of phenotype and motility EC50, 72 h, read-out: Activity on schistosomula (EC50, μM - 72 h) Average): 0.41 µM; EC50 (S. mansoni schistosomula; Table 2, average of phenotype and motility EC50, 72 h, read-out: Activity on schistosomula (EC50, μM - 72 h) Average): 0.41 µM; EC50 (S. mansoni schistosomula; Table 2, motility, 72 h, three replicate titrations (0.313–10 μM), read-out: Activity on schistosomula (EC50, μM - 72 h) M): 0.45 µM; EC50 (S. mansoni schistosomula; Table 2, phenotype, 72 h, three replicate titrations (0.313–10 μM), read-out: Activity on schistosomula (EC50, μM - 72 h) P): 0.37 µM; CC50 (HepG2 cells; read-out: HepG2 cells (CC50, μM) 24 h, 24 h co-incubation): 5.07 µM; CC50 (HepG2 cells; read-out: HepG2 cells (CC50, μM) 72 h, 72 h co-incubation): 2.94 µM
O=[N+]([O-])c1ccc2nc(Nc3cccc(Cl)c3)c(Nc3cccc(Cl)c3)nc2c1 [Compound 25, N^2, N^3-bis(3-chlorophenyl)-6-nitroquinoxaline-2,3-diamine] | 1.26 µM | 1.3 µM | 1.22 µM | 1.3 µM | 1.22 µM | 12 nM | 12 nM | – | 47.99 | 0.46 | decreased motility starting at 48 h | 0 | 0 | 2 | S, on sides | 2 | S+, on sides | –
O=[N+]([O-])c1ccc2nc(Nc3ccc(Br)cc3)c(Nc3ccc(Br)cc3)nc2c1 [Compound 29, N2, N3-bis(4-bromophenyl)-6-nitroquinoxaline-2,3-diamine] | 0.71 µM | 0.65 µM | 0.78 µM | 0.83 µM | 1.06 µM | 122 nM | 122 nM | – | 32.52 | 5.55 | – | – | – | – | – | – | – | –
